According to US20210322508A1, “PEPTIDES AND COMPOSITIONS FOR TARGETED TREATMENT AND IMAGING” (SIGNABLOK, INC., priority 2018, published 2021):
Residues, ends and D or L forms follow the SMILES beside them.

Columns and labels:
[1] = target: T1, TREM-1 (Mus musculus, UniProt Q9JKE2); test: colocalization of labeled peptide with TREM-1 in the cell membrane (images); assay type: cell-based; details: GE31 delivered to macrophages by SLP, G-KV21 pre-incubated with HDL, J774 cells
T1 construct: BALB/c murine macrophage J774A.1 cells were grown at 37° C. in six-well tissue culture plates containing glass coverslips; endogenous in cells; host or cells: BALB/c murine macrophage cell line J774A.1 (ATCC)
T1 sequence (O54885 22-114 partner): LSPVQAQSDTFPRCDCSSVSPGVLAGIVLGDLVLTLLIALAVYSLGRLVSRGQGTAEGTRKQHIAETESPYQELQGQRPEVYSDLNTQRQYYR
T1 sequence (Q9JKE2 21-230): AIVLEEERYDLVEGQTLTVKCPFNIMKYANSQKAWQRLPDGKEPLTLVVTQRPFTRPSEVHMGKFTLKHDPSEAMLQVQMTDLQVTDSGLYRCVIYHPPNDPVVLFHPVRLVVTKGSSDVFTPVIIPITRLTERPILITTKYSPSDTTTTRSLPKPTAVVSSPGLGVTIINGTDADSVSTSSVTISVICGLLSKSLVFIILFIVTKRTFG

[2] = system: mice with oxygen-induced retinopathy (OIR); test: oxygen-induced retinopathy (OIR) in mice; assay type: in vivo
Source text: The membrane was probed for TREM-1, reprobed for CSF1 and then for β-actin.

[3] = penetration of the blood-brain and blood-retinal barrier after systemic administration; assay type: in vivo; details: rhodamine B-labeled; mice intraperitoneally; rats and rabbits intravenously (G-KV21)
[4] = target: T1, TREM-1; test: Immunofluorescence colocalization with TREM-1 in the cell membrane; assay type: cell-based; details: J774A.1; 6 h; Dylight 488-labeled, pre-incubated with HDL
Experimental: BALB/c murine macrophage J774A.1 cells were obtained from ATCC (Manassas, Va.) and cultured according to manufacturer's instructions at 37° C. in 6-well tissue culture plates containing glass coverslips until reaching about 50% confluency. Then, cells were incubated for 6 h at 37° C. either with rho B-labeled GF9-SLP that contained Dylight labeled GF9 or TREM-1/TRIOPEP-sSLP that contained Dylight 488-labeled GE31. In colocalization experiments, TREM-1 staining was performed using an Alexa 647-labeled rat anti-mouse TREM-1 antibody (Bio-Rad, Hercules, Calif.) as described in Shen and Sigalov. J Cell Mol Med 2017, 21:2524-2534. Coverslips were mounted using Prolong Gold anti-fade DAPI (4′,6-diamidino-2-phenylindole) mounting medium and photographed using an Olympus BX60 fluorescence microscope. Confocal imaging was performed using a Leica TCS SP5 II laser scanning confocal microscope as described in Shen and Sigalov. J Cell Mol Med 2017, 21:2524-2534.
BALB/c murine macrophage J774A.1 cells were grown at 37° C. in six-well tissue culture plates containing glass coverslips. […] ProLong Gold Antifade DAPI (4′,6′-diamidino-2-phenylindole) mounting medium was used to mount coverslips, and the slides were photographed using an Olympus BX60 fluorescence microscope. […]

[5] = system: LPS-stimulated J774A.1 macrophages (TNF-alpha, IL-6, IL-1beta); test: In vitro cytokine release by LPS-stimulated macrophages; assay type: cell-based, mouse; details: 10 ng/ml after pre-incubation with HDL; LPS 1 μg/ml, 24 h
Experimental: (§1) The BALB/c murine macrophage cell line J774A.1 (ATCC TIB-67) were obtained from the American Type Culture Collection (ATCC, Manassas, Va.). Macrophages were cultured in 48-well plates (Corning, Cambridge, Mass.) for 24 h at 37° C. in the presence of LPS (1 μg/ml, Escherichia coli 055:B5, Sigma) in combination with 10 ng/ml peptides either pre-incubated or not with HDL. Cell-free supernatants were harvested and stored at −20° C. for later cytokine quantification. TNF-alpha, IL-6, and IL-1beta were assayed using commercial ELISA kits (Pierce Biotechnology, Thermo Scientific, Rockford, Ill.) according to the recommendations of the manufacturer. Results were represented as the mean±S.D. of three independent experiments. Statistical significances in in vitro macrophage uptake assay were determined by two-tailed Student's t test.
as §1, with “Macrophages were cultured in 48-well plates (Corning, Cambridge, Mass.) for 24 h at 37° C. in the presence of LPS (1 μg/ml, Escherichia coli 055:B5, Sigma) in combination with 10 ng/ml peptides either pre-incubated or not with HDL.” left out

[6] = system: healthy C57BL/6 mice; test: Mouse tolerability studies; assay type: in vivo; details: free form, i.p., healthy mice
Experimental: Naïve, female C57BL/6 mice at 8 to 10 weeks of age (18 to 21 g) from the Jackson Laboratory were used. […] Clinical observations and body weights were made twice daily.
Naïve, female C57BL/6 mice at 8 to 10 weeks of age (18 to 21 g) from the Jackson Laboratory were used. Animals were randomly grouped (5 mice per group) and i.p. injected with 400 mg/kg G-HV21, G-KV21 or G-TE21. Clinical observations and body weights were made twice daily.

[7] = comparison of therapies (cancer indications); details: shown for cancer indications

| SMILES | colocalization with TREM-1 in the cell membrane [1] | pathological retinal neovascularization (RNV) ([2]; 25 mg/kg GF9, 2.5 mg/kg GF9-sSLP, 4 mg/kg GA/E31-sSLP where stated) | retinal tissue expression of TREM-1 and CSF-1 (M-CSF) ([2]; P17, Western blot) | penetration of the BBB and BRB [3] | self-insertion into the cell membrane and colocalization with TREM-1 [4] | production of cytokines by LPS-stimulated macrophages [5] | dose at which non-toxic and well tolerated [6] | Acute toxicity [7] |
| --- | --- | --- | --- | --- | --- | --- | --- | --- |
| CC(C)C[C@H](NC(=O)[C@H](Cc1ccccc1)NC(=O)CN)C(=O)N[C@@H](CO)C(=O)N[C@@H](CCCCN)C(=O)N[C@@H](CO)C(=O)N[C@@H](CC(C)C)C(=O)N[C@H](C(=O)N[C@@H](Cc1ccccc1)C(=O)N[C@@H](Cc1c[nH]c2ccccc12)C(=O)N[C@@H](CCC(N)=O)C(=O)N[C@@H](CCC(=O)O)C(=O)N[C@@H](CCC(=O)O)C(=O)N[C@@H](CC[S+](C)[O-])C(=O)N[C@@H](CCC(=O)O)C(=O)N[C@@H](CC(C)C)C(=O)N[C@@H](Cc1ccc(O)cc1)C(=O)N[C@@H](CCCNC(=N)N)C(=O)N[C@@H](CCC(N)=O)C(=O)N[C@@H](CCCCN)C(=O)N[C@H](C(=O)O)C(C)C)C(C)C (stereo partly drawn) [G-KV21] (HELM PEPTIDE1{G.F.L.S.K.S.L.V.F.W.Q.E.E.[CS(=O)CC[C@H](N[*:1])C(=O)[*:2]].E.L.Y.R.Q.K.V}$$$$V2.0) | colocalization | significantly suppresses pathological RNV | inhibits tissue expression of TREM-1 and M-CSF | penetration of the BBB and BRB | self-inserts into the cell membrane and colocalizes with TREM-1 | inhibit production of cytokines by LPS-stimulated macrophages |  |  |
| CC(C)C[C@H](NC(=O)[C@H](Cc1ccccc1)NC(=O)CN)C(=O)N[C@@H](CO)C(=O)N[C@@H](CCCCN)C(=O)N[C@@H](CO)C(=O)N[C@@H](CC(C)C)C(=O)N[C@H](C(=O)N[C@@H](Cc1ccccc1)C(=O)NCC(=O)N[C@@H](CCC(=O)O)C(=O)N[C@@H](CCC(=O)O)C(=O)N[C@@H](CC[S+](C)[O-])C(=O)N[C@@H](CCCNC(=N)N)C(=O)N[C@@H](CC(=O)O)C(=O)N[C@@H](CCCNC(=N)N)C(=O)N[C@@H](C)C(=O)N[C@@H](CCCNC(=N)N)C(=O)N[C@@H](C)C(=O)N[C@@H](Cc1c[nH]cn1)C(=O)N[C@H](C(=O)O)C(C)C)C(C)C (stereo partly drawn) [G-HV21] (HELM PEPTIDE1{G.F.L.S.K.S.L.V.F.G.E.E.[CS(=O)CC[C@H](N[*:1])C(=O)[*:2]].R.D.R.A.R.A.H.V}$$$$V2.0) |  |  |  |  |  | inhibit production of cytokines by LPS-stimulated macrophages |  |  |
| CC(C)C[C@H](NC(=O)[C@H](Cc1ccccc1)NC(=O)CN)C(=O)N[C@@H](CO)C(=O)N[C@@H](CCCCN)C(=O)N[C@@H](CO)C(=O)N[C@@H](CC(C)C)C(=O)N[C@H](C(=O)N[C@@H](Cc1ccccc1)C(=O)O)C(C)C [GF9] (H-GFLSKSLVF-OH) |  |  |  |  |  |  | at least 300 mg/kg | LOW |
